In patent US10072001B2, “Tank-binding kinase inhibitor compounds” (Gilead Sciences, Inc., priority 2014, dated 2018):

Key:
[1] = target: IKKε (Homo sapiens (Human), UniProt Q14164); test: TR-FRET kinase assay, IKKε; format: biochemical; conditions: full length recombinant IKKε 0.3 nM, 2x Km ATP, 1 μM peptide, 240 min at 25° C.; geometric mean of minimum four determinations
From the text: Biological Assay for TBK1 and IKKs:

[2] = target: TBK1 (Homo sapiens (Human), UniProt Q9UHD2); test: TR-FRET kinase assay, TBK1; conditions: read-out: TBK1-IC50; full length recombinant TBK1 2.5 nM, 2x Km ATP, 1 μM peptide, 240 min at 25° C.; geometric mean of minimum four determinations
Chain of TBK1 (Q9UHD2 whole entry): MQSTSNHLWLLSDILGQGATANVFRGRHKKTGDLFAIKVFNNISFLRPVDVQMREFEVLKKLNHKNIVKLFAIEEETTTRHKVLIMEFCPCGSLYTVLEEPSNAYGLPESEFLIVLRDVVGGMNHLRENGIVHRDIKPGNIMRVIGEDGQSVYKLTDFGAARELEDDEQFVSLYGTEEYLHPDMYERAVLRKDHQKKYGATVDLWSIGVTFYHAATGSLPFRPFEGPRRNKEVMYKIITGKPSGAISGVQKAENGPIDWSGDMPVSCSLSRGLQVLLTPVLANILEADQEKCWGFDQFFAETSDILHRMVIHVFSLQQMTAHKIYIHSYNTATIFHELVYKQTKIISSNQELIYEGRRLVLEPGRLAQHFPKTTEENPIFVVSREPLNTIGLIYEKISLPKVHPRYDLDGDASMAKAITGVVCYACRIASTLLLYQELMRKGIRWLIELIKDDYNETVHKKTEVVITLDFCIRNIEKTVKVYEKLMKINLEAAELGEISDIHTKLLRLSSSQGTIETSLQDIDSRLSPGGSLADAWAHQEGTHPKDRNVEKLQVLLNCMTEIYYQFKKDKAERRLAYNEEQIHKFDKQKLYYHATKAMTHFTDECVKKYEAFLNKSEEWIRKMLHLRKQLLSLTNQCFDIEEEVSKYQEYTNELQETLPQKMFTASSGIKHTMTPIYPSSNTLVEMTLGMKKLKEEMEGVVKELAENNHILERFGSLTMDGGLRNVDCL
Protocol: Enzymatic activity of IKKε and TBK1 was measured using a homogeneous time resolved fluorescence resonance energy transfer (TR-FRET) assay that monitors enzyme dependent phosphorylation of a biotinylated serine/threonine peptide substrate. […] TBK1 and IKKs were expressed and purified as full length recombinant proteins. Detection reagents for the assay were purchased from Cisbio. […] After an assay reaction time of 240 minutes at 25° C., reactions were terminated with EDTA.
Amount of phosphorylated peptide was determined by the addition of 125 nM streptavidin XL665 and europium cryptate labeled anti-phospho monoclonal antibody and the resulting TR-FRET signal was recorded on an Envision plate reader (Ex: 340 nm; Em: 615/665 nm; 100 μs delay and 200 μs read window). […] All IC50 values represent geometric mean values of a minimum of four determinations.

Chain of IKKε (Q14164 whole entry): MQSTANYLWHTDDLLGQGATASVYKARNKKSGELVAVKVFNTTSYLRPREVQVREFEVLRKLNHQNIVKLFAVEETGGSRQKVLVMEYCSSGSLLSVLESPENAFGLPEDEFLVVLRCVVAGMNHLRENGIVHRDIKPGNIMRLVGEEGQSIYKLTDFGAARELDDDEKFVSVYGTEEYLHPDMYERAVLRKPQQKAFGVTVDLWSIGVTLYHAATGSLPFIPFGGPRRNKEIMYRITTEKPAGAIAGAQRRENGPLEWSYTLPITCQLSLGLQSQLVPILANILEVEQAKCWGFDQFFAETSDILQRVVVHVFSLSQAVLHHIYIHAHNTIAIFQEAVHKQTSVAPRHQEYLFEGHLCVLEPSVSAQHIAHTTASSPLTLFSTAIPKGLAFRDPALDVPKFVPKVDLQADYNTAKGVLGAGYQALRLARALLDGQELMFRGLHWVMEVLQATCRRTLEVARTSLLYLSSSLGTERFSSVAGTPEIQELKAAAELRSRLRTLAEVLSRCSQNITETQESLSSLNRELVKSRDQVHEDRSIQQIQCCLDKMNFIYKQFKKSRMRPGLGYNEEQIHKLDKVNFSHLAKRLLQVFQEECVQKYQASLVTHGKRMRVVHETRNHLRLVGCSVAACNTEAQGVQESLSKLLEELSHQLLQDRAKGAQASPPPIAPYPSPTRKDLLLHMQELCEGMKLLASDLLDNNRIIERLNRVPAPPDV

Structure (SMILES) | IC50 [1] [nM] | IC50 [2] [nM]
N#Cc1cc(-c2ccnc3[nH]c(-c4ccc(N)nc4)cc23)ccc1OC1CCOCC1 [Example 11, 5-(2-(6-aminopyridin-3-yl)-1H-pyrrolo[2,3-b]pyridin-4-yl)-2-((tetrahydro-2H-pyran-4-yl)oxy)benzonitrile] | 9.51 | 5.53
CC(C)(O)c1cccc(-c2cc3c(-c4ccc(OC5CCOCC5)c(C#N)c4)ccnc3[nH]2)c1 [Example 68, 5-(2-(3-(2-hydroxypropan-2-yl)phenyl)-1H-pyrrolo[2,3-b]pyridin-4-yl)-2-((tetrahydro-2H-pyran-4-yl)oxy)benzonitrile] | 22.5 | 10.6
N#Cc1cc(-c2ccnc3[nH]c(-c4cc[nH]c(=O)c4)cc23)ccc1OC1CCOCC1 [Example 217, 5-(2-(2-oxo-1,2-dihydropyridin-4-yl)-1H-pyrrolo[2,3-b]pyridin-4-yl)-2-((tetrahydro-2H-pyran-4-yl)oxy)benzonitrile] | 34.7 | 19.3
N#Cc1cc(-c2ncnc3[nH]c(-c4ccc(Cn5ccnc5)cc4)cc23)ccc1OC1CCOCC1 [Example 114, 5-(6-(4-((1H-imidzol-1-yl)methyl)phenyl)-7H-pyrrolo[2,3-d]pyrimidin-4-yl)-2-((tetrahydro-2H-pyran-4-yl)oxy)benzonitrile] | 5.79 | 5.13
N#Cc1cc(-c2ncnc3[nH]c(-c4ccc(N5CCOCC5)cc4)cc23)ccc1OC1CCNCC1 [Example 218, 5-(6-(4-morpholinophenyl)-7H-pyrrolo[2,3-d]pyrimidin-4-yl)-2-(piperidin-4-yloxy)benzonitrile] | 140 | 31.1
N#Cc1cc(-c2ccnc3[nH]c(C#CCO)cc23)ccc1OC1CCOCC1 [Example 148, 5-(2-(3-hydroxyprop-1-yn-1-yl)-1H-pyrrolo[2,3-b]pyridin-4-yl)-2-((tetrahydro-2H-pyran-4-yl)oxy)benzonitrile] | 205 | 184
N#Cc1cc(-c2ccnc3[nH]c(-c4cc5ccccc5[nH]4)cc23)ccc1OC1CCOCC1 [Example 38] | 76.8 | 32.5
N#Cc1cc(-c2ncnc3[nH]c(-c4ccc(N5CCOCC5)cc4)cc23)ccc1OC1CC2(COC2)C1 [Example 164, 2-(2-Oxaspiro[3.3]heptan-6-yloxy)-5-(6-(4-morpholinophenyl)-7H-pyrrolo[2,3-d]pyrimidin-4-yl)benzonitrile] | 95.1 | 56.1
N#Cc1cc(-c2ncnc3[nH]c(-c4ccc(C5CCN(CC(F)(F)F)CC5)cc4)nc23)ccc1OC1CCNCC1 [Example 261, 2-(piperidin-4-yloxy)-5-(8-(4-(1-(2,2,2-trifluoroethyl)piperidin-4-yl)phenyl)-9H-purin-6-yl)benzonitrile] | 96 | 37.1
CC(C)(O)c1ccc(-c2cc3c(-c4ccc(OC5CCOCC5)c(C#N)c4)ncnc3[nH]2)cn1 [Example 129, 5-(6-(6-(2-hydroxypropan-2-yl)pyridin-3-yl)-7H-pyrrolo[2,3-d]pyrimidin-4-yl)-2-((tetrahydro-2H-pyran-4-yl)oxy)benzonitrile] | 17.4 | 2.77
CS(=O)(=O)c1ccc(-c2ccnc3[nH]c(-c4ccc(N5CCOCC5)cc4)cc23)cc1C#N [Example 192, 2-(methylsulfonyl)-5-(2-(4-morpholinophenyl)-1H-pyrrolo[2,3-b]pyridin-4-yl)benzonitrile] | 1000 | 275
CC(C)(C)n1cc(-c2cc3c(-c4ccc(OC5CCOCC5)c(C#N)c4)ccnc3[nH]2)cn1 [Example 53, 5-(2-(1-(tert-butyl)-1H-pyrazol-4-yl)-1H-pyrrolo[2,3-b]pyridin-4-yl)-2-((tetrahydro-2H-pyran-4-yl)oxy)benzonitrile] | 13.7 | 9.4
N#Cc1cc(-c2ccnc3[nH]c(-c4ccc5c(c4)C(=O)NC5)cc23)ccc1OC1CCOCC1 [Example 74, 5-(2-(3-oxoisoindolin-5-yl)-1H-pyrrolo[2,3-b]pyridin-4-yl)-2-((tetrahydro-2H-pyran-4-yl)oxy)benzonitrile] | > 1000 | 9.62
